Measured values as given in publication PMC7587962, “Evaluation of Cytotoxicity and α-Glucosidase Inhibitory Activity of Amide and Polyamino-Derivatives of Lupane Triterpenoids” (Molecules, 2020).

Assays:
COLO 205 = test: NCI-60 SRB screen: colon cancer COLO 205; assay type: cell-based, human; settings: COLO 205
MDA-MB-231/ATCC = test: NCI-60 SRB screen: breast cancer MDA-MB-231/ATCC; assay type: cell-based; settings: Homo sapiens, 48 h
HOP-62 = test: NCI-60 SRB screen: non-small cell lung cancer HOP-62; assay type: cell-based, human; settings: HOP-62
CNS cancer subpanel = test: NCI-60 screen, subpanel CNS cancer
Prostate cancer subpanel = test: NCI-60 screen, subpanel Prostate cancer
Renal Cancer subpanel = test: NCI-60 screen, subpanel Renal Cancer
SF-295 = test: NCI-60 SRB screen: CNS cancer SF-295; assay type: cell-based, human; settings: SF-295
SR = test: NCI-60 SRB screen: leukemia SR; assay type: cell-based; settings: Homo sapiens, 48 h
SK-MEL-2 = test: NCI-60 SRB screen: melanoma SK-MEL-2; assay type: cell-based, human; settings: SK-MEL-2
U251 = test: NCI-60 SRB screen: CNS cancer U251; assay type: cell-based; settings: Homo sapiens, U251
EKVX = test: NCI-60 SRB screen: non-small cell lung cancer EKVX; assay type: cell-based, human
KM12 = test: NCI-60 SRB screen: colon cancer KM12; assay type: cell-based, human; settings: KM12
RXF 393 = test: NCI-60 SRB screen: renal cancer RXF 393; assay type: cell-based, human; settings: RXF 393
HT29 = test: NCI-60 SRB screen: colon cancer HT29; assay type: cell-based; settings: Homo sapiens, HT29
MALME-3M = test: NCI-60 SRB screen: melanoma MALME-3M; assay type: cell-based, human; settings: MALME-3M
NCI-H322M = test: NCI-60 SRB screen: non-small cell lung cancer NCI-H322M; assay type: cell-based, human
SNB-19 = test: NCI-60 SRB screen: CNS cancer SNB-19; assay type: cell-based, human; settings: SNB-19
A498 = test: NCI-60 SRB screen: renal cancer A498; assay type: cell-based, human; settings: A498
HOP-92 = test: NCI-60 SRB screen: non-small cell lung cancer HOP-92; assay type: cell-based, human; settings: HOP-92
HCT-15 = test: NCI-60 SRB screen: colon cancer HCT-15; assay type: cell-based, human; settings: HCT-15
HCC-2998 = test: NCI-60 SRB screen: colon cancer HCC-2998; assay type: cell-based, human; settings: HCC-2998
UACC-257 = test: NCI-60 SRB screen: melanoma UACC-257; assay type: cell-based, human; settings: UACC-257
Colon Cancer subpanel = test: NCI-60 screen, subpanel Colon Cancer
Leukemia subpanel = test: NCI-60 screen, subpanel Leukemia
NCI/ADR-RES = test: NCI-60 SRB screen: ovarian cancer NCI/ADR-RES; assay type: cell-based, human
DU-145 = test: NCI-60 SRB screen: prostate cancer DU-145; assay type: cell-based, human; settings: DU-145
CCRF-CEM = test: NCI-60 SRB screen: leukemia CCRF-CEM; assay type: cell-based; settings: Homo sapiens, 48 h
HCT-116 = test: NCI-60 SRB screen: colon cancer HCT-116; assay type: cell-based; settings: Homo sapiens, 48 h, HCT-116
[1] = system: 60 human tumor cell lines; settings: single dose 10 µM
TK-10 = test: NCI-60 SRB screen: renal cancer TK-10; assay type: cell-based, human; settings: TK-10
SK-MEL-5 = test: NCI-60 SRB screen: melanoma SK-MEL-5; assay type: cell-based, human; settings: SK-MEL-5
IGROV1 = test: NCI-60 SRB screen: ovarian cancer IGROV1; assay type: cell-based, human; settings: IGROV1
Breast cancer subpanel = test: NCI-60 screen, subpanel Breast cancer
NCI-H226 = test: NCI-60 SRB screen: non-small cell lung cancer NCI-H226; assay type: cell-based, human; settings: NCI-H226
SW-620 = test: NCI-60 SRB screen: colon cancer SW-620; assay type: cell-based; settings: Homo sapiens, 48 h, SW-620
UO-31 = test: NCI-60 SRB screen: renal cancer UO-31; assay type: cell-based, human; settings: UO-31
NSCL cancer subpanel = test: NCI-60 screen, subpanel NSCL cancer
[2] = Homo sapiens, five concentrations, 48 h, SRB, read-out: GI50
[3] = single dose 10 µM, read-out: Percentage Cell Growth
[4] = five concentrations, SRB, read-out: GI50

C=C(C)[C@@H]1CC[C@]2(C(=O)NCCNCCNCCN)CC[C@]3(C)[C@H](CC[C@@H]4[C@@]5(C)CC[C@H](O)C(C)(C)[C@@H]5CC[C@]43C)[C@@H]12 [Compound 6]
Percentage Cell Growth (COLO 205; single dose 10 µM): −19.47% | GI50 (COLO 205; [2]): 15.9 µM | activity at 10 µM (MDA-MB-231/ATCC; MDA-MB-231/ATCC, single dose 10 µM, read-out: Percentage Cell Growth): -56.9% | GI50 (MDA-MB-231/ATCC; MDA-MB-231, MDA-MB-31/ATCC, five concentrations, SRB, read-out: GI50): 15.1 µM | Percentage Cell Growth (HOP-62; single dose 10 µM): −69.12% | GI50 (HOP-62; [2]): 16.5 µM | MID b, average sensitivity of all cell line of particular subpanel (CNS cancer subpanel): 12.52 µM | Selectivity, ratio MID a: MID b (CNS cancer subpanel): 0.97 | MID b, average sensitivity of all cell line of particular subpanel (Prostate cancer subpanel): 8.53 µM | Selectivity, ratio MID a: MID b (Prostate cancer subpanel): 1.42 | MID b, average sensitivity of all cell line of particular subpanel (Renal Cancer subpanel): 13.02 µM | Selectivity, ratio MID a: MID b (Renal Cancer subpanel): 0.93 | GI50 (SF-295; [2]): 13.8 µM | Percentage Cell Growth (SF-295; single dose 10 µM): −84.72% | activity at 10 µM (SR; [3]): -4.72% | GI50 (SR; [4]): 6.76 µM | GI50 (SK-MEL-2; [2]): 16.8 µM | Percentage Cell Growth (SK-MEL-2; single dose 10 µM): −65.39% | activity at 10 µM (U251; U-251, 48 h, single dose 10 µM, read-out: Percentage Cell Growth): -71.7% | GI50 (U251; U-251, five concentrations, 48 h, SRB, read-out: GI50): 12.7 µM | GI50 (EKVX; [2]): 10.5 µM | Percentage Cell Growth (EKVX; single dose 10 µM): −11.36% | GI50 (KM12; [2]): 6.81 µM | Percentage Cell Growth (KM12; single dose 10 µM): −52.23% | GI50 (RXF 393; [2]): 13.2 µM | Percentage Cell Growth (RXF 393; single dose 10 µM): −82.88% | activity at 10 µM (HT29; HT-29, 48 h, single dose 10 µM, read-out: Percentage Cell Growth): -39.6% | GI50 (HT29; HT-29, five concentrations, 48 h, SRB, read-out: GI50): 14.6 µM | GI50 (MALME-3M; [2]): 14.6 µM | Percentage Cell Growth (MALME-3M; single dose 10 µM): −100.00% | GI50 (NCI-H322M; [2]): 15.1 µM | Percentage Cell Growth (NCI-H322M; single dose 10 µM): −83.84% | GI50 (SNB-19; [2]): 12.9 µM | Percentage Cell Growth (SNB-19; single dose 10 µM): −74.52% | Percentage Cell Growth (A498; single dose 10 µM): −32.64% | GI50 (A498; [2]): 19.6 µM | Percentage Cell Growth (HOP-92; single dose 10 µM): −65.35% | GI50 (HOP-92; [2]): 4.61 µM | Percentage Cell Growth (HCT-15; single dose 10 µM): −24.81% | GI50 (HCT-15; [2]): 11.5 µM | Percentage Cell Growth (HCC-2998; single dose 10 µM): −90.36% | GI50 (HCC-2998; [2]): 14.1 µM | GI50 (UACC-257; [2]): 15.1 µM | Percentage Cell Growth (UACC-257; single dose 10 µM): −39.58% | MID b, average sensitivity of all cell line of particular subpanel (Colon Cancer subpanel): 11.72 µM | Selectivity, ratio MID a: MID b (Colon Cancer subpanel): 1.04 | MID b, average sensitivity of all cell line of particular subpanel (Leukemia subpanel): 6.64 µM | Selectivity, ratio MID a: MID b (Leukemia subpanel): 1.83 | GI50 (NCI/ADR-RES; [2]): 18.9 µM | Percentage Cell Growth (NCI/ADR-RES; single dose 10 µM): −13.05% | Percentage Cell Growth (DU-145; single dose 10 µM): −8.34% | GI50 (DU-145; [2]): 14.1 µM | activity at 10 µM (CCRF-CEM; [3]): 5.18% | GI50 (CCRF-CEM; [4]): 4.55 µM | activity at 10 µM (HCT-116; [3]): -26.5% | GI50 (HCT-116; [4]): 4.4 µM | cancer cell lethality, range of percentage growth ([1]; cell lines with negative growth): −4.72% to −100% | cases of cancer cell lethality ([1]; number of cell lines): 57 | GI50 (TK-10; [2]): 15.8 µM | Percentage Cell Growth (TK-10; single dose 10 µM): −67.30% | GI50 (SK-MEL-5; [2]): 11.1 µM | Percentage Cell Growth (SK-MEL-5; single dose 10 µM): −90.10% | GI50 (IGROV1; Homo sapiens, IGROV-1, five concentrations, 48 h, SRB, read-out: GI50): 16.1 µM | Percentage Cell Growth (IGROV1; single dose 10 µM): −81.43% | MID b, average sensitivity of all cell line of particular subpanel (Breast cancer subpanel): 13.86 µM | Selectivity, ratio MID a: MID b (Breast cancer subpanel): 0.88 | GI50 (NCI-H226; [2]): 15.5 µM | Percentage Cell Growth (NCI-H226; single dose 10 µM): −23.56% | activity at 10 µM (SW-620; [3]): -86.7% | GI50 (SW-620; [4]): 14.7 µM | GI50 (UO-31; [2]): 11.7 µM | Percentage Cell Growth (UO-31; single dose 10 µM): −100.00% | MID b, average sensitivity of all cell line of particular subpanel (NSCL cancer subpanel): 11.88 µM | Selectivity, ratio MID a: MID b (NSCL cancer subpanel): 1.02
